Source: patent publication US20230322767A1, “ARYL SUBSTITUTED PYRROLO-PYRIDINONES AND THERAPEUTIC USES THEREOF” (Bayer Aktiengesellschaft, priority 2020, published 2023)
pIC50: −log10 of the molar value. Where “and” joins values, the source holds several entries; their conditions need not be identical. Equal values may be shown once. Read-outs that look alike come from different tables or passages of the source.

Biological target: wild-type Epidermal Growth Factor Receptor (EGFR) (Homo sapiens (Human), UniProt P00533)
Test: WT-EGFR Kinase Assay (TR-FRET, 2 mM ATP)
Format: biochemical
From the text: Inhibitory activity of compounds of the present invention against wild-type Epidermal Growth Factor Receptor (EGFR) was quantified employing the TR-FRET based EGFR assay as described in the following paragraphs.
Recombinant fusion protein of N-terminal Glutathion-S-Transferase (GST) and a fragment of human EGFR (amino acids R669 to A1210), expressed in Sf9 insect cells and purified via affinity chromatography using Glutathion Sepharose as described above, was used as kinase. As substrate for the kinase reaction the biotinylated peptide biotin-Ahx-[…] (C-terminus in amide form) was used which can be purchased e.g. form the company Biosynthan GmbH (Berlin-Buch, Germany).
For the assay 50 nl of a 100 fold concentrated solution of the test compound in DMSO was pipetted into either a black low volume 384 well microtiter plate or a black 1536 well microtiter plate (both Greiner Bio-One, Frickenhausen, Germany), 2 μL of a solution of EGFR in aqueous assay buffer [50 mM Hepes pH 7.0, 10 mM MgCl2, 1 mM dithiothreitol, 0.5 mM EGTA, 0.3 mM activated sodium ortho-vanadate, 0.005% (w/v) bovine serum albumin, 0.005% (v/v) Tween-20] were added and the mixture was incubated for 15 min at 22° C. to allow pre-binding of the test compounds to the enzyme before the start of the kinase reaction. […] The concentration of EGFR was adjusted depending of the activity of the enzyme lot and was chosen appropriate to have the assay in the linear range, typical concentration was […]. The reaction was stopped by the addition of 3 μL of a solution of HTRF detection reagents (83.3 nM streptavidine-XL665 [Cisbio Bioassays, Codolet, France] and 1.67 nM PT66-Tb-Cryptate, a terbium-cryptate labelled anti-phospho-tyrosine antibody from Cisbio Bioassays [instead of the PT66-Tb-cryptate PT66-Eu-Chelate from Perkin Elmer can also be used]) in an aqueous EDTA-solution (133.3 mM EDTA, 0.2% (w/v) bovine serum albumin in 50 mM HEPES pH 7.5).
The resulting mixture was incubated 1 h at 22° C. to allow the binding of the biotinylated phosphorylated peptide to the streptavidine-XL665 and the PT66-Tb-Cryptate. Subsequently the amount of phosphorylated substrate was evaluated by measurement of the resonance energy transfer from the PT66-Tb-Cryptate to the streptavidine-XL665. Therefore, the fluorescence emissions at 620 nm and 665 nm after excitation at 337 nm were measured in a HTRF reader, e.g. a Pherastar (BMG Labtechnologies, Offenburg, Germany) or a Viewlux (Perkin-Elmer). The ratio of the emissions at 665 nm and at 622 nm was taken as the measure for the amount of phosphorylated substrate.

[1] = EGFR Wildtyp 2 mM ATP IC50 [mol/l] (median), median or individual measurements
[2] = read-out: EGFR Wildtyp 2 mM ATP IC50 [mol/l] (median), median or individual measurements

wild-type Epidermal Growth Factor Receptor (EGFR), sequence (P00533 669-1210): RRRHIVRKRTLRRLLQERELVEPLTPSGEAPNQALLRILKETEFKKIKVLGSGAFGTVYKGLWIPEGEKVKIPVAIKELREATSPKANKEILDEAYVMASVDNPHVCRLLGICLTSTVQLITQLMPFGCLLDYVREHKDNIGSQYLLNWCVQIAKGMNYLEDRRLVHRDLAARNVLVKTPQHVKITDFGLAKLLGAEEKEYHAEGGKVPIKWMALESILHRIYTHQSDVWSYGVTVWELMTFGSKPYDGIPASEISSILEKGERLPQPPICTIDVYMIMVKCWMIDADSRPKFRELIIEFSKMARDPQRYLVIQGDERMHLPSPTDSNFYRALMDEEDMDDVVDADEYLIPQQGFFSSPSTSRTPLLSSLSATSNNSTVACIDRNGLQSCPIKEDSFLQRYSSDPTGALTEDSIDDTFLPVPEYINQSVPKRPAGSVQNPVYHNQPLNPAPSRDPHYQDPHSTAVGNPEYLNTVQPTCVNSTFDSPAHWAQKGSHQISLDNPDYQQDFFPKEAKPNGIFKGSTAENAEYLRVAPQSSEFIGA

Cn1ccc2[nH]c(-c3ccnc(NC(=O)C(CC(F)F)c4ccc(F)cc4)c3)c(-c3ccccc3)c2c1=O (single isomer, unassigned) [Example 008, 4,4-difluoro-2-(4-fluorophenyl)-N-[4-(5-methyl-4-oxo-3-phenyl-4,5-dihydro-1H-pyrrolo[3,2-c]pyridin-2-yl)pyridin-2-yl]butanamide]
IC50 [1]: 7.82 µM and 7.83 µM and > 20 µM (2×)

CN1CCc2[nH]c(-c3ccnc(NC(=O)C(CC(F)F)c4ccc(F)cc4)c3)c(-c3cccnc3)c2C1=O (single isomer, unassigned) [Example 010, 4,4-difluoro-2-(4-fluorophenyl)-N-{4-[5-methyl-4-oxo-3-(pyridin-3-yl)-4,5,6,7-tetrahydro-1H-pyrrolo[3,2-c]pyridin-2-yl]pyridin-2-yl}butanamide]
pIC50 [1]: < 4.70

CN1CCc2[nH]c(-c3ccnc(NC(=O)C(CC(F)F)c4ccc(F)cc4)c3)c(-c3cccnc3)c2C1=O (single isomer, unassigned) [Example 011, 4,4-difluoro-2-(4-fluorophenyl)-N-{4-[5-methyl-4-oxo-3-(pyridin-3-yl)-4,5,6,7-tetrahydro-1H-pyrrolo[3,2-c]pyridin-2-yl]pyridin-2-yl}butanamide]
pIC50 [2]: < 4.70

Cn1cc(CC(F)(F)F)c2[nH]c(-c3ccnc(NC(=O)C(CC(F)F)c4ccc(F)cc4)c3)c(-c3ccc(F)cc3)c2c1=O (single isomer, unassigned) [Example 027, 4,4-difluoro-2-(4-fluorophenyl)-N-{4-[3-(4-fluorophenyl)-5-methyl-4-oxo-7-(2,2,2-trifluoroethyl)-4,5-dihydro-1H-pyrrolo[3,2-c]pyridin-2-yl]pyridin-2-yl}butanamide]
pIC50 [1]: < 4.70

Cn1cc(CC(F)(F)F)c2[nH]c(-c3ccnc(NC(=O)C(CC(F)F)c4ccc(F)cc4)c3)c(-c3ccc(F)cc3)c2c1=O (single isomer, unassigned) [Example 028, 4,4-difluoro-2-(4-fluorophenyl)-N-{4-[3-(4-fluorophenyl)-5-methyl-4-oxo-7-(2,2,2-trifluoroethyl)-4,5-dihydro-1H-pyrrolo[3,2-c]pyridin-2-yl]pyridin-2-yl}butanamide]
pIC50 [1]: < 5.24

CC1(C)CNC(=O)c2c1[nH]c(-c1ccnc(NC(=O)C(CC(F)F)c3ccc(F)cc3)c1)c2-c1ccccc1 (single isomer, unassigned) [Example 044, N-[4-(7,7-dimethyl-4-oxo-3-phenyl-4,5,6,7-tetrahydro-1H-pyrrolo[3,2-c]pyridin-2-yl)pyridin-2-yl]-4,4-difluoro-2-(4-fluorophenyl)butanamide]
pIC50 [1]: < 4.70

CC1(C)CNC(=O)c2c1[nH]c(-c1ccnc(NC(=O)C(CC(F)F)c3ccc(F)cc3)c1)c2-c1ccccc1 (single isomer, unassigned) [Example 045, N-[4-(7,7-dimethyl-4-oxo-3-phenyl-4,5,6,7-tetrahydro-1H-pyrrolo[3,2-c]pyridin-2-yl)pyridin-2-yl]-4,4-difluoro-2-(4-fluorophenyl)butanamide]
pIC50 [2]: < 4.70

CC(C(=O)Nc1cc(-c2[nH]c3c(c2-c2ccccc2)C(=O)NCC3(C)C)ccn1)c1ccc(F)cc1 (single isomer, unassigned) [Example 047, N-[4-(7,7-dimethyl-4-oxo-3-phenyl-4,5,6,7-tetrahydro-1H-pyrrolo[3,2-c]pyridin-2-yl)pyridin-2-yl]-2-(4-fluorophenyl)propanamide]
pIC50 [1]: < 4.70

CC(C(=O)Nc1cc(-c2[nH]c3c(c2-c2ccccc2)C(=O)NCC3(C)C)ccn1)c1ccc(F)cc1 (single isomer, unassigned) [Example 048, N-[4-(7,7-dimethyl-4-oxo-3-phenyl-4,5,6,7-tetrahydro-1H-pyrrolo[3,2-c]pyridin-2-yl)pyridin-2-yl]-2-(4-fluorophenyl)propanamide]
pIC50 [2]: < 4.70

CC(C(=O)Nc1cc(-c2[nH]c3c(CC(F)(F)F)cn(C)c(=O)c3c2-c2ccccc2)ccn1)c1ccc(F)cc1 (single isomer, unassigned; (+)) [Example 015, (+)-2-(4-fluorophenyl)-N-{4-[5-methyl-4-oxo-3-phenyl-7-(2,2,2-trifluoroethyl)-4,5-dihydro-1H-pyrrolo[3,2-c]pyridin-2-yl]pyridin-2-yl}propanamide]
pIC50 [1]: 5.72

Cn1cc(CC(F)(F)F)c2[nH]c(-c3ccnc(NC(=O)C(CC(F)F)c4ccc(F)cc4)c3)c(-c3ccccc3)c2c1=O (single isomer, unassigned; (+)) [Example 020, (+)-4,4-difluoro-2-(4-fluorophenyl)-N-{4-[5-methyl-4-oxo-3-phenyl-7-(2,2,2-trifluoroethyl)-4,5-dihydro-1H-pyrrolo[3,2-c]pyridin-2-yl]pyridin-2-yl}butanamide]
pIC50 [2]: < 4.70

CC(C(=O)Nc1cc(-c2[nH]c3c(CC(F)(F)F)cn(C)c(=O)c3c2-c2ccc(F)cc2)ccn1)c1ccc(F)cc1 (single isomer, unassigned; (+)) [Example 024, (+)-2-(4-fluorophenyl)-N-{4-[3-(4-fluorophenyl)-5-methyl-4-oxo-7-(2,2,2-trifluoroethyl)-4,5-dihydro-1H-pyrrolo[3,2-c]pyridin-2-yl]pyridin-2-yl}propanamide]
pIC50 [2]: < 4.70

Cc1cn(C)c(=O)c2c(-c3ccc(F)cc3)c(-c3ccnc(NC(=O)C(C)c4ccc(F)cc4)c3)[nH]c12 (single isomer, unassigned; (+)) [Example 032, (+)-2-(4-fluorophenyl)-N-{4-[3-(4-fluorophenyl)-5,7-dimethyl-4-oxo-4,5-dihydro-1H-pyrrolo[3,2-c]pyridin-2-yl]pyridin-2-yl}propanamide]
pIC50 [2]: < 4.70

Cc1cn(C)c(=O)c2c(-c3ccc(F)cc3)c(-c3ccnc(NC(=O)C(CC(F)F)c4ccc(F)cc4)c3)[nH]c12 (single isomer, unassigned; (+)) [Example 036, (+)-4,4-difluoro-2-(4-fluorophenyl)-N-{4-[3-(4-fluorophenyl)-5,7-dimethyl-4-oxo-4,5-dihydro-1H-pyrrolo[3,2-c]pyridin-2-yl]pyridin-2-yl}butanamide]
pIC50 [2]: < 4.70

CN1C(=O)c2c([nH]c(-c3ccnc(NC(=O)C(CC(F)F)c4ccc(F)cc4)c3)c2-c2ccccc2)CC12CCC2 (single isomer, unassigned; (+)) [Example 051, (+)-4,4-difluoro-2-(4-fluorophenyl)-N-[4-(5′-methyl-4′-oxo-3′-phenyl-1′,4′,5′,7′-tetrahydrospiro-[cyclobutane-1,6′-pyrrolo[3,2-c]pyridin]-2′-yl)pyridin-2-yl]butanamide]
pIC50 [1]: 5.49

CC(C(=O)Nc1cc(-c2[nH]c3c(c2-c2ccccc2)C(=O)N(C)C2(CCC2)C3)ccn1)c1ccc(F)cc1 (single isomer, unassigned; (+)) [Example 054, (+)-2-(4-fluorophenyl)-N-[4-(5′-methyl-4′-oxo-3′-phenyl-1′,4′,5′,7′-tetrahydrospiro[cyclobutane-1,6′-pyrrolo[3,2-c]pyridin]-2′-yl)pyridin-2-yl]propanamide]
pIC50 [2]: < 4.70

CC(C(=O)Nc1cc(-c2[nH]c3c(CC(F)(F)F)cn(C)c(=O)c3c2-c2ccccc2)ccn1)c1ccc(F)cc1 (single isomer, unassigned; (-)) [Example 016, (-)-2-(4-fluorophenyl)-N-{4-[5-methyl-4-oxo-3-phenyl-7-(2,2,2-trifluoroethyl)-4,5-dihydro-1H-pyrrolo[3,2-c]pyridin-2-yl]pyridin-2-yl}propanamide]
pIC50 [1]: < 4.70

Cn1cc(CC(F)(F)F)c2[nH]c(-c3ccnc(NC(=O)C(CC(F)F)c4ccc(F)cc4)c3)c(-c3ccccc3)c2c1=O (single isomer, unassigned; (-)) [Example 019, (-)-4,4-difluoro-2-(4-fluorophenyl)-N-{4-[5-methyl-4-oxo-3-phenyl-7-(2,2,2-trifluoroethyl)-4,5-dihydro-1H-pyrrolo[3,2-c]pyridin-2-yl]pyridin-2-yl}butanamide]
pIC50 [1]: < 4.70

CC(C(=O)Nc1cc(-c2[nH]c3c(CC(F)(F)F)cn(C)c(=O)c3c2-c2ccc(F)cc2)ccn1)c1ccc(F)cc1 (single isomer, unassigned; (-)) [Example 023, (-)-2-(4-fluorophenyl)-N-{4-[3-(4-fluorophenyl)-5-methyl-4-oxo-7-(2,2,2-trifluoroethyl)-4,5-dihydro-1H-pyrrolo[3,2-c]pyridin-2-yl]pyridin-2-yl}propanamide]
pIC50 [1]: < 4.70
